Values of other authors as cited in US6921495B2, “Environmentally compatible defrosting and antifreeze agents for aeroplanes” (Clariant GmbH, priority 2001, dated 2005).
Read-outs that look alike come from different tables or passages of the source.

| Compound | LD50 oral rat (rat; in vivo, po) | LCO in Brachydanio rerio (Brachydanio rerio; Brachydanio rerio) | LD50 oral rat (rat; oral) | LCO in Brachydanio rerio (Brachydanio rerio; in vivo) |
| --- | --- | --- | --- | --- |
| c1ccc2[nH]nnc2c1 [benzotriazole] | 560 mg/kg | 100 mg/L | – | – |
| Tolyltriazole | – | – | 675 mg/kg | 42.2 mg/L |
